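Growth conditions: 96-well plates. Treatment: test compound, 48 hours, 5 concentrations. Analysis: linear interpolation between bracketing concentrations; unreached endpoints set to highest concentration. The concentration for 50% growth inhibition is given as GI50.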 Calls of active or inactive are those of the source. No stated cut-off is given here; in the data, active = GI50 up to about 1.1 µM and inactive = higher.
Key:
Test in all cases: NCI-60 cell line screen, 48 h
HL-60 = tested on: HL-60
NCI-H23 = tested on: NCI-H23
MDA-N = tested on: MDA-N
MDA-MB-231 = tested on: MDA-MB-231
SN12C = tested on: SN12C
NCI-H460 = tested on: NCI-H460
SNB-19 = tested on: SNB-19
HOP-62 = tested on: HOP-62
K562 = tested on: K562
NCI-H522 = tested on: NCI-H522
IGROV-1 = tested on: IGROV-1
OVCAR-5 = tested on: OVCAR-5
KM12 = tested on: KM12
CAKI-1 = tested on: CAKI-1
M14 = tested on: M14
786-0 = tested on: 786-0
T47D = tested on: T47D
TK-10 = tested on: TK-10
OVCAR-4 = tested on: OVCAR-4
LOX IMVI = tested on: LOX IMVI
DU-145 = tested on: DU-145
HCT-116 = tested on: HCT-116
MCF7 = tested on: MCF7
OVCAR-8 = tested on: OVCAR-8
SK-MEL-2 = tested on: SK-MEL-2
PC-3 = tested on: PC-3
NCI-H226 = tested on: NCI-H226
COLO 205 = tested on: COLO 205
NCI/ADR-RES = tested on: NCI/ADR-RES
MDA-MB-435 = tested on: MDA-MB-435
HCC 2998 = tested on: HCC 2998
MOLT-4 = tested on: MOLT-4
OVCAR-3 = tested on: OVCAR-3
SNB-75 = tested on: SNB-75
CCRF-CEM = tested on: CCRF-CEM
Malme-3M = tested on: Malme-3M
SW-620 = tested on: SW-620
SF-268 = tested on: SF-268
HT-29 = tested on: HT-29
SK-MEL-28 = tested on: SK-MEL-28
HOP-92 = tested on: HOP-92
U-251 = tested on: U-251
SF-295 = tested on: SF-295
A549 = tested on: A549
HCT-15 = tested on: HCT-15
SR = tested on: SR
UO-31 = tested on: UO-31
EKVX = tested on: EKVX
RPMI-8226 = tested on: RPMI-8226
UACC-257 = tested on: UACC-257
ACHN = tested on: ACHN
SF-539 = tested on: SF-539
Hs-578T = tested on: Hs-578T
SK-MEL-5 = tested on: SK-MEL-5
SK-OV-3 = tested on: SK-OV-3
A498 = tested on: A498
UACC-62 = tested on: UACC-62
RXF 393 = tested on: RXF 393

Measured: GI50

Cc1occc(=O)c1O [MALTOL]
4.25 µM: HCT-15
inactive: HL-60 > 100 µM | NCI-H23 > 100 µM | MDA-N > 100 µM | MDA-MB-231 3.84 µM | SN12C 5 µM | NCI-H460 > 100 µM | SNB-19 > 100 µM | HOP-62 > 100 µM | K562 > 100 µM | NCI-H522 > 100 µM | IGROV-1 > 100 µM | OVCAR-5 > 100 µM | KM12 > 100 µM | CAKI-1 > 100 µM | M14 > 100 µM | 786-0 > 100 µM | T47D > 100 µM | TK-10 > 100 µM | OVCAR-4 > 100 µM | LOX IMVI > 100 µM | DU-145 > 100 µM | HCT-116 > 100 µM | MCF7 > 100 µM | OVCAR-8 > 100 µM | SK-MEL-2 > 100 µM | PC-3 > 100 µM | NCI-H226 > 100 µM | COLO 205 > 100 µM | NCI/ADR-RES > 100 µM | MDA-MB-435 > 100 µM | HCC 2998 > 100 µM | MOLT-4 > 100 µM | OVCAR-3 > 100 µM | SNB-75 > 100 µM | CCRF-CEM > 100 µM | Malme-3M > 100 µM | SW-620 > 100 µM | SF-268 > 100 µM | HT-29 > 100 µM | SK-MEL-28 > 100 µM | HOP-92 > 100 µM | U-251 > 100 µM | SF-295 > 100 µM | A549 > 100 µM | SR > 100 µM | UO-31 > 100 µM | EKVX > 100 µM | RPMI-8226 > 100 µM | UACC-257 > 100 µM | ACHN > 100 µM | SF-539 > 100 µM | Hs-578T > 100 µM | SK-MEL-5 > 100 µM

C[C@@H](C(=O)O)c1ccc(-c2ccccc2)c(F)c1 [TARENFLURBIL]
inactive: NCI-H23 > 100 µM | SK-OV-3 > 100 µM | MDA-MB-231 > 100 µM | NCI-H460 > 100 µM | SNB-19 > 73.6 µM | K562 > 100 µM | IGROV-1 > 100 µM | OVCAR-5 > 100 µM | KM12 > 100 µM | CAKI-1 > 100 µM | A498 > 100 µM | M14 > 100 µM | 786-0 > 100 µM | T47D > 100 µM | TK-10 > 100 µM | OVCAR-4 > 100 µM | LOX IMVI > 100 µM | DU-145 > 100 µM | HCT-116 > 100 µM | OVCAR-8 > 100 µM | PC-3 > 100 µM | COLO 205 > 100 µM | NCI/ADR-RES > 100 µM | HCC 2998 > 100 µM | MOLT-4 > 100 µM | OVCAR-3 > 100 µM | CCRF-CEM > 100 µM | SW-620 > 100 µM | HT-29 > 100 µM | HOP-92 > 100 µM | U-251 > 100 µM | UACC-62 > 100 µM | SF-295 > 100 µM | SR > 100 µM | UO-31 > 71.9 µM | RPMI-8226 > 100 µM | UACC-257 > 100 µM | RXF 393 > 100 µM | ACHN > 100 µM | SK-MEL-5 > 100 µM

COc1cc([C@@H]2c3cc4c(cc3[C@@H](Nc3ccc(NC(=O)c5cc([N+](=O)[O-])cn5C)cc3)[C@H]3COC(=O)[C@H]23)OCO4)cc(OC)c1O
0.307 µM: HCT-15
active: HL-60 < 0.0213 µM | NCI-H23 0.0401 µM | SNB-19 0.054 µM | HOP-62 0.0198 µM | K562 0.132 µM | NCI-H522 0.291 µM | IGROV-1 0.265 µM | OVCAR-5 0.468 µM | KM12 0.216 µM | M14 0.0771 µM | 786-0 0.0627 µM | T47D 0.0134 µM | TK-10 0.479 µM | DU-145 < 0.013 µM | HCT-116 0.138 µM | OVCAR-8 0.11 µM | SK-MEL-2 0.938 µM | PC-3 0.143 µM | COLO 205 0.219 µM | HCC 2998 0.223 µM | OVCAR-3 0.449 µM | SNB-75 0.0614 µM | SW-620 0.162 µM | SF-268 0.118 µM | HT-29 0.195 µM | SK-MEL-28 0.621 µM | HOP-92 0.0796 µM | UACC-62 0.0612 µM | A549 0.0195 µM | SR < 0.01 µM | UO-31 0.231 µM | EKVX 0.658 µM | UACC-257 0.658 µM | RXF 393 0.352 µM | ACHN < 0.0108 µM | SF-539 0.0617 µM
